Two compounds from patent US20070071831A1, “Product for the prevention and the treatment of grapevine infections and method of preparation thereof” (Vomm Impianti e Processi S.p.A., priority 2005, published 2007) can be followed below.

Test [1] concerns corky bark. Kind of test: Vineyard treatment of grapevine plants against corky bark. It is filed as in vivo. The settings on record: remaining plants (more than 500) of the same vineyard. An excerpt:
Finally, some preliminary experiments have shown that the product of the invention is effective not only against downy mildew infections but also against other plant diseases such as, in particular, corky bark, caused by the phytoplasm transmitted by the vector Scaphoideus titanus Ball, a Deltocefalinae plathopper.
In particular the product has been tested on 70 grapevine plants arranged on five rows in a vineyard wherein the remaining plants (more than 500) have been treated with a conventional synthetic plant protection product (Fenitrothion).

For test [2], the system named is downy mildew. Kind of test: Vineyard treatment of grapevine plants against downy mildew. It is filed as in vivo, Plasmopara viticola. The settings on record: remaining plants of a vineyard of approximately 1000 grapevine plants; same number and times of applications; beginning of March to end of July. Here is the method:
The product obtained according to example 1 was diluted with water, mixing a part of product with ten parts of water and it was used to treat the grapevine plants.
The product thus diluted was applied by spraying on 70 grapevine plants arranged in 5 rows in a vineyard comprising approximately 1000 grapevine plants. The remaining plants were then treated with a conventional synthetic plant protection product (Metiram).
The treatments were carried out during the period between the beginning of March and the end of July, each time applying a quantity of 100 g of diluted product per plant. The same number of applications as those of the conventional plant protection product were carried out, at the same times.

In the case of `COP(=S)(OC)Oc1ccc([N+](=O)[O-])c(C)c1` [Fenitrothion], in test [1], the “plants attacked by corky bark” value was “majority”.
For Metiram, the “plants showing obvious signs of downy mildew infestation” value in test [2] was 18%.
